This is an account of results in PMC3677620, “Cytotoxicity and In Vitro Antileishmanial Activity of Antimony (V), Bismuth (V), and Tin (IV) Complexes of Lapachol” (Bioinorganic Chemistry and Applications, 2013).

One data set relates to murine macrophages. The experiment in a line: Cytotoxicity test, MTT method, murine peritoneal macrophages. As to conditions: for MLD50: the minimum lethal dose that killed 50% of the cells, macrophages: murine peritoneal macrophages, MTT, 24 h. As to the method:
(§1) Animals were kept in the Animal Facility of the Centro de Pesquisas René Rachou/FIOCRUZ in strict accordance to the Guide for the Care and Use of Experimental Animals. The procedures were approved by the Internal Ethics Committee in Animal Experimentation (CEUA) of Fundação Oswaldo Cruz (FIOCRUZ), Brazil (Protocol L-042/08). Mice were euthanized with CO2 in an induction chamber prior to macrophage removal. Balb/c mice were injected intraperitoneally with 2 mL of 3% sodium thioglycollate medium. After 72 h, peritoneal macrophages were removed by washing with cold RPMI 1640 medium and enriched by adherence to round glass coverslips (13 mm) placed in a 4-well culture plate. Cells (2 × 10^5 cells/well) were cultured (37°C, 5% CO2, 18 h) in RPMI supplemented with 10% heat-inactivated FBS (fetal bovine serum) prior to infection with parasites. Macrophages were exposed to stationary phase promastigotes (2 × 10^6/well) at a final ratio of 1 : 10. The plates were incubated at 37°C, 5% CO2, for 5 h in BOD to allow internalization of parasites. Then, the medium was removed for the remaining noninternalized parasites. Negative control included only infected macrophages and medium. Incubations were tested in duplicate in two independent experiments. The substances were serial diluted with RPMI 1640 medium supplemented with 10% FBS at five different concentrations (50 → 3.1 μg/mL). For compounds (3) and (6), the dilution was 10 → 0.016 μg/mL. […] Infected macrophages were exposed daily to the compounds for 3 consecutive days. After this period, coverslips were collected, stained with Panoptic (Laborclin), and subsequently mounted with Entellan (Merck) on glass slides.
(§2) The cell lineage HepG2 A16 was derived from a human hepatocellular carcinoma cell line HepG2 (ATCC HB-8065) and obtained from America Type Culture Collection line (ATCC). Balb/c murine peritoneal macrophages were obtained as described above. Cytotoxicity was determined using the MTT method (3-(4,5-dimethylthiazol-2-yl)-2,5-diphenyl tetrazolium bromide) (Sigma). HepG2 cells were kept in RPMI medium supplemented with 10% FBS, and confluent monolayers were trypsinized, washed in RPMI, and transferred to 96-well microtiter plates (4 × 10^4 cells/well) for 16–18 h. Murine macrophages were used in the concentration 2 × 10^5 cells/well in 96-well microtiter plates. The compounds were serial diluted in different concentrations (10 → 0.16 mg/mL). In both tests, the medium was removed, and the compounds were incubated for 24 h (37°C, 5% CO2). Colorimetric reaction was developed following the incubation with MTT (37°C, 5% CO2, 4 h) and addition of acidified isopropanol. The reaction was read spectrophotometrically (Spectramax M5, Molecular Devices, San Francisco, CA) with a 570 nm filter and a background of 670 nm. Incubations were tested in triplicate in two independent experiments. The minimum dose that killed 50% of the cells (MLD50) was determined, and the values were plotted to generate dose-response curves using Microcal Origin Software (Northampton, MA, USA).
Background: Tetrazolium assays rely on reduction of a dye to a coloured formazan, in cell work by metabolically active cells.

The next data set relates to HepG2 cells. The experiment in a line: Cytotoxicity test, MTT method, HepG2 cells. As to conditions: for MLD50: the minimum lethal dose that killed 50% of the cells, HepG2: MTT, 24 h; for MLD50, the minimum lethal dose (Figure 2): hepatoma HepG2 cell, curve of one representative experiment. On the procedure: as §2, with “Balb/c” for “The cell lineage HepG2 A16 was derived from a human hepatocellular carcinoma cell line HepG2 (ATCC HB-8065) and obtained from America Type Culture Collection line (ATCC). Balb/c”

The test system of data set [1] is L. amazonensis. As to the kind of experiment: In vitro classic microscopic test, intracellular amastigotes in infected murine peritoneal macrophages. The data set is classed as cell-based, Leishmania amazonensis (IFLA/BR/1967/PH8). As to conditions: for IC50: Leishmania amazonensis, Peritoneal macrophage, 72 h; for IC50, half-maximal inhibitory response (Figure 2): intracellular L. amazonensis, curve of one representative experiment; for IC50: the inhibitory concentration that killed 50% of the L. amazonensis: intracellular amastigotes in Balb/c peritoneal macrophages, 3 days exposure, based on percentage of infected macrophages. As to the method: The World Health Organization (WHO) reference strain L. amazonensis (IFLA/BR/1967/PH8) was used and typed as previously described. Promastigote forms were grown at 25°C in M199 medium (Sigma) supplemented with 10% heat-inactivated fetal calf serum (Cultilab), 40 mmol/L HEPES (Amersham), 0.1 mmol/L adenine (Sigma), 0.0005% hemin (Sigma), 0.0002% biotin (Sigma), 50 units/mL penicillin, and […] streptomycin (Invitrogen).
as §1
The in vitro classic microscopic test enables direct counting to determine the percentage of infected cells and/or the number of amastigotes. Here, the IC50 values were calculated based on the percentage of infected macrophages.

The subject of the next data set is L. braziliensis. Further details: method as in PMID 15654435. The note with it: cited from earlier work.
Data set [2] deals with L. amazonensis. Further details: method as in PMID 15654435. As to conditions: strain MHOM/BR/77/LTB0016 ref 5; cited from earlier work.

Converted amounts (≈) assume the structure as drawn. “And” between values parts separate entries of the source, which are not always exact repeats. Identical values can stand only once. Like-named read-outs stand apart in the source and are kept apart here.

As to `C[C@@H]1[C@H](O)[C@@H](C)/C=C/C=C/C=C/C=C/C=C/C=C/C=C/[C@H](O[C@@H]2O[C@H](C)[C@@H](O)[C@H](N)[C@@H]2O)C[C@@H]2O[C@](O)(C[C@@H](O)C[C@@H](O)[C@H](O)CC[C@@H](O)C[C@@H](O)CC(=O)O[C@H]1C)C[C@H](O)[C@H]2C(=O)O` [Amphotericin B], the “MLD50: the minimum lethal dose that killed 50% of the cells, macrophages” value in the data set on murine macrophages was determined as 179.95 ± 8.84 µg/mL. Further, in the data set on HepG2 cells, the “MLD50: the minimum lethal dose that killed 50% of the cells, HepG2” value is 644.59 ± 126.57 µg/mL. Further, the IC50 in the data set with L. amazonensis [1] (read-out: IC50: the inhibitory concentration that killed 50% of the L. amazonensis) is 0.73 ± 0.6 µg/mL (≈ 0.79 µM).
For the molecule (Lp)(Ph3Sn) [(3)], the “MLD50: the minimum lethal dose that killed 50% of the cells, macrophages” value with murine macrophages was 1.6 ± 0.57 µg/mL. For the same molecule, in the data set with HepG2 cells, the “MLD50: the minimum lethal dose that killed 50% of the cells, HepG2” value turned out to be 12.01 ± 0.17 µg/mL and the “MLD50, the minimum lethal dose (Figure 2)” value (“MLD50 … (Figure 2)” below) came to 11.9 µg/mL. Besides, in the data set with L. amazonensis [1], the “IC50, half-maximal inhibitory response (Figure 2)” value was determined as 0.15 µg/mL and the “IC50: the inhibitory concentration that killed 50% of the L. amazonensis” value worked out at 0.17 ± 0.03 µg/mL.
On to `[Cl][Sn]([c]1ccccc1)([c]1ccccc1)[c]1ccccc1` [(6), triphenyltin chloride], for which the “MLD50: the minimum lethal dose that killed 50% of the cells, macrophages” value in the data set on murine macrophages is 0.73 ± 0.13 µg/mL. In addition, in the data set on HepG2 cells, the “MLD50: the minimum lethal dose that killed 50% of the cells, HepG2” value was 12.04 ± 8.42 µg/mL and the “MLD50 … (Figure 2)” value stood at 18 µg/mL. In the data set with L. amazonensis [1], the “IC50, half-maximal inhibitory response (Figure 2)” value is 0.18 µg/mL and the “IC50: the inhibitory concentration that killed 50% of the L. amazonensis” value came out at 0.10 ± 0.11 µg/mL.
With `[Cl][Sb]([Cl])([c]1ccccc1)([c]1ccccc1)[c]1ccccc1` [(5), triphenylantimony dichloride], the “MLD50: the minimum lethal dose that killed 50% of the cells, macrophages” value in the data set on murine macrophages amounted to 30.75 ± 6.01 µg/mL. Also, the “MLD50: the minimum lethal dose that killed 50% of the cells, HepG2” value in the data set on HepG2 cells is 157.46 ± 37.13 µg/mL. Besides, in the data set on L. amazonensis [1], the “IC50: the inhibitory concentration that killed 50% of the L. amazonensis” value was determined as 11.61 ± 7.85 µg/mL.
(Lp)(Ph3Bi)O0.5 [(1)]: the “MLD50: the minimum lethal dose that killed 50% of the cells, macrophages” value in the data set on murine macrophages was 32.4 ± 8.20 µg/mL. In the data set on HepG2 cells, the “MLD50: the minimum lethal dose that killed 50% of the cells, HepG2” value is 58.38 ± 8.47 µg/mL.
For `[Cl][Bi]([Cl])([c]1ccccc1)([c]1ccccc1)[c]1ccccc1` [(4), Triphenylbismuth dichloride], in the data set on murine macrophages, the “MLD50: the minimum lethal dose that killed 50% of the cells, macrophages” value is 25.15 ± 0.49 µg/mL. Moreover, in the data set with HepG2 cells, the “MLD50: the minimum lethal dose that killed 50% of the cells, HepG2” value was determined as 183.75 ± 4.77 µg/mL and the “MLD50 … (Figure 2)” value came to 187.1 µg/mL. In the data set with L. amazonensis [1], the “IC50, half-maximal inhibitory response (Figure 2)” value is 5.51 µg/mL and the “IC50: the inhibitory concentration that killed 50% of the L. amazonensis” value was found to be 5.40 ± 0.16 µg/mL.
Regarding `CC(C)=CCC1=C(O)C(=O)c2ccccc2C1=O` [(7), 2-hydroxy-3-(3′-methyl-2-butenyl)-1,4-naphthoquinone], the “IC50 observed for L. braziliensis” value in the data set with L. braziliensis is 11.9 ± 6.9 µg/mL. For the same molecule, the “SI: selective index, macrophages” value in the data set with murine macrophages (MLD50/IC50 ratio, murine macrophages versus L. amazonensis) is on record as 11.92. In addition, in the data set with murine macrophages, the “MLD50: the minimum lethal dose that killed 50% of the cells, macrophages” value was found to be 184.65 ± 6.58 µg/mL. Further, the “IC50 against L. amazonensis, previous studies” value with L. amazonensis [2] was 5.2 ± 0.70 µg/mL (≈ 21.5 µM). For the same molecule, the “MLD50: the minimum lethal dose that killed 50% of the cells, HepG2” value in the data set on HepG2 cells was 201.77 ± 5.32 µg/mL. In the data set with HepG2 cells (MLD50/IC50 ratio, HepG2 cells versus L. amazonensis), the “SI: selective index, HepG2” value was 13.03. Besides, in the data set with L. amazonensis [1] (read-out: IC50: the inhibitory concentration that killed 50% of the L. amazonensis, intracellular amastigotes in Balb/c peritoneal macrophages, 3 days exposure, based on percentage of infected macrophages), the IC50 is greater than 10 µg/mL. Also, the “IC50: the inhibitory concentration that killed 50% of the L. amazonensis” value in the data set with L. amazonensis [1] is 15.48 ± 5.23 µg/mL.
As to (Lp)(Ph3Sb)OH [(2)], in the data set with murine macrophages, the “MLD50: the minimum lethal dose that killed 50% of the cells, macrophages” value was 130.65 ± 40.52 µg/mL. For the same molecule, in the data set on HepG2 cells, the “MLD50: the minimum lethal dose that killed 50% of the cells, HepG2” value came to 325.22 ± 89.40 µg/mL. Further, the “IC50: the inhibitory concentration that killed 50% of the L. amazonensis” value with L. amazonensis [1] is > 10 µg/mL and 18.27 ± 5.58 µg/mL.
